Legend:
Assay in all cases: relative viability (nuclei count vs DMSO), 5 days (fraction); higher = more cells survive
[1] = compound: CC1=C(C=CC(=C1)[N+](=O)[O-])NS(=O)(=O)C2=C(C=CC(=C2)Cl)Cl [FH535] + Nc1ncn([C@H]2C[C@H](O)[C@@H](CO)O2)c(=O)n1 [Decitabine] (partner 2 µM)
Method in brief: (§1)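 Cells from lung cancer lines were seeded into 1536-well plates and, one day later, dosed by pin tool. Treatments were either a single drug or a fixed dose of an anchor drug with five library-drug doses (not always all listed) in √10 steps. After 5 days, nuclei were stained in a one-step fixation (final 0.05% Triton X-100, 1% formaldehyde, 1 ug/ml Hoechst) and counted on 4× images, and relative viability is the treated-to-vehicle nuclei ratio, as the median of duplicate plates.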

[2] = compound: CC1=C(C=CC(=C1)[N+](=O)[O-])NS(=O)(=O)C2=C(C=CC(=C2)Cl)Cl [FH535] + Cc1nc(Nc2ncc(C(=O)Nc3c(C)cccc3Cl)s2)cc(N2CCN(CCO)CC2)n1 [Dasatinib] (partner 0.075 µM)
Method in brief: as §1

[3] = compound: CC1=C(C=CC(=C1)[N+](=O)[O-])NS(=O)(=O)C2=C(C=CC(=C2)Cl)Cl [FH535] + O=C(c1cc(Cc2n[nH]c(=O)c3ccccc23)ccc1F)N1CCN(C(=O)C2CC2)CC1 [Olaparib] (partner 8 µM)
Method in brief: as §1

[4] = compound: CC1=C(C=CC(=C1)[N+](=O)[O-])NS(=O)(=O)C2=C(C=CC(=C2)Cl)Cl [FH535] + COc1cc2c(Oc3ccc(NC(=O)C4(C(=O)Nc5ccc(F)cc5)CC4)cc3F)ccnc2cc1OCCCN1CCOCC1 [Foretinib] (partner 0.25 µM)
Method in brief: as §1

[5] = compound: CC1=C(C=CC(=C1)[N+](=O)[O-])NS(=O)(=O)C2=C(C=CC(=C2)Cl)Cl [FH535] + CC1(C)CCC(c2ccc(Cl)cc2)=C(CN2CCN(c3ccc(C(=O)NS(=O)(=O)c4ccc(N[C@H](CCN5CCOCC5)CSc5ccccc5)c(S(=O)(=O)C(F)(F)F)c4)cc3)CC2)C1 [Navitoclax] (partner 0.5 µM)
Method in brief: as §1

Row | Cell Line | relative viability ([1]; first compound 0.04 µM) | relative viability ([1]; first compound 0.1265 µM) | relative viability ([1]; first compound 0.4 µM) | relative viability ([1]; first compound 1.265 µM) | relative viability ([2]; first compound 0.04 µM) | relative viability ([2]; first compound 0.1265 µM) | relative viability ([2]; first compound 0.4 µM) | relative viability ([2]; first compound 1.265 µM) | relative viability ([3]; first compound 0.04 µM) | relative viability ([3]; first compound 0.1265 µM) | relative viability ([3]; first compound 0.4 µM) | relative viability ([3]; first compound 1.265 µM) | relative viability ([4]; first compound 0.04 µM) | relative viability ([4]; first compound 0.1265 µM) | relative viability ([4]; first compound 0.4 µM) | relative viability ([4]; first compound 1.265 µM) | relative viability ([5]; first compound 0.04 µM) | relative viability ([5]; first compound 0.1265 µM) | relative viability ([5]; first compound 0.4 µM) | relative viability ([5]; first compound 1.265 µM)
1 | NCI-H522 | 0.588 | 0.697 | 0.712 | 0.698 | 0.882 | 0.862 | 0.827 | 0.979 | 0.686 | 0.717 | 0.632 | 0.467 | – | – | – | – | – | – | – | –
2 | NCI-H2342 | 0.706 | 0.632 | 0.736 | 0.568 | 0.305 | 0.339 | 0.281 | 0.297 | 0.471 | 0.487 | 0.434 | 0.363 | 1.19 | 1.09 | 1.04 | 0.792 | – | – | – | –
3 | CAL-12T | – | – | – | – | 0.361 | 0.417 | 0.291 | 0.235 | 0.693 | 0.813 | 0.612 | 0.411 | 1.15 | 1.11 | 1.04 | 0.577 | 1.16 | 1.11 | 1.12 | 0.654
4 | NCI-H661 | 0.546 | 0.609 | 0.566 | 0.46 | 0.704 | 0.994 | 0.615 | 0.475 | 0.729 | 0.743 | 0.66 | 0.515 | 1.01 | 0.947 | 0.92 | 0.671 | – | – | – | –
5 | NCI-H2228 | – | – | – | – | 0.49 | 0.502 | 0.552 | 0.402 | 0.783 | 0.886 | 0.709 | 0.698 | 0.752 | 0.87 | 0.707 | 0.936 | 0.826 | 1.1 | 0.841 | 0.728
6 | SW 900 | 0.443 | 0.547 | 0.418 | 0.418 | 0.481 | 0.748 | 0.507 | 0.63 | 0.923 | 0.838 | 0.804 | 0.657 | 0.745 | 0.94 | 0.764 | 0.541 | – | – | – | –
7 | NCI-H650 | 0.315 | 0.359 | 0.333 | 0.32 | 0.4 | 0.462 | 0.429 | 0.309 | 0.384 | 0.341 | 0.369 | 0.249 | 0.927 | 1.05 | 1.01 | 0.788 | – | – | – | –
8 | NCI-H1792 | 0.564 | 0.523 | 0.506 | 0.457 | 0.661 | 0.761 | 0.701 | 0.543 | 0.463 | 0.329 | 0.39 | 0.345 | – | – | – | – | 0.611 | 0.673 | 0.587 | 0.377
9 | HCC-44 | 0.896 | 0.938 | 0.845 | 0.835 | – | – | – | – | 0.976 | 0.929 | 0.969 | 0.768 | – | – | – | – | 1.06 | 1.04 | 0.911 | 0.74
10 | IA-LM | – | – | – | – | – | – | – | – | 0.768 | 0.732 | 0.712 | 0.503 | 1.21 | 1.21 | 1.08 | 0.701 | 0.917 | 0.621 | 0.593 | 0.496
11 | NCI-H1563 | – | – | – | – | 0.445 | 0.495 | 0.508 | 0.435 | – | – | – | – | 0.909 | 0.825 | 0.994 | 0.874 | – | – | – | –
